# Patent EP4563573A1, “COMPOUND, AND PREPARATION METHOD THEREFOR AND USE THEREOF IN PREPARATION OF SEH INHIBITOR AND PPARS AGONIST” (Shenyang Pharmaceutical University, priority 2023, dated 2024)
# Read-outs that look alike come from different tables or passages of the source.
# Tests used:
# PPARγ = molecular target: T1, PPARγ (Homo sapiens, UniProt P37231); test: PPARγ agonist activity test (luciferase reporter gene); format: cell-based; settings: for PPARγ (compared with Rosiglitazone, %): relative to Rosiglitazone
# T1 sequence (P37231 204-505): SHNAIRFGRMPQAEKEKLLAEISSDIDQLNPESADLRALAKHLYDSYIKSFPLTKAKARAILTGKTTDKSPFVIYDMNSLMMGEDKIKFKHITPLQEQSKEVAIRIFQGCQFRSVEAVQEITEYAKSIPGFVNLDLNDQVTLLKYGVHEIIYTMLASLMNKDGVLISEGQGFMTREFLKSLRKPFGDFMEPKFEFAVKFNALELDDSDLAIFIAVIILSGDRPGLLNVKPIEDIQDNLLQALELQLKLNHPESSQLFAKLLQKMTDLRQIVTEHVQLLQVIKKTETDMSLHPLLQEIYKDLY
# Text: • 1. PPARγ agonist activity test Detection principle: when pM-hPPAR binds to the appropriate ligand, and is activated and binds to the GAL4DNA binding site in the plasmid pB4-RES-tk-luc, thereby initiating the expression of the downstream luciferase reporter gene. The amount of luciferase is detected to determine whether the compound to be tested is a PPAR agonist. • 2.
# murine sEH (MsEH) [1] = molecular target: T2, murine sEH (MsEH) (Mus musculus, UniProt P34914); test: biochemical
# T2 sequence (P34914 1-554): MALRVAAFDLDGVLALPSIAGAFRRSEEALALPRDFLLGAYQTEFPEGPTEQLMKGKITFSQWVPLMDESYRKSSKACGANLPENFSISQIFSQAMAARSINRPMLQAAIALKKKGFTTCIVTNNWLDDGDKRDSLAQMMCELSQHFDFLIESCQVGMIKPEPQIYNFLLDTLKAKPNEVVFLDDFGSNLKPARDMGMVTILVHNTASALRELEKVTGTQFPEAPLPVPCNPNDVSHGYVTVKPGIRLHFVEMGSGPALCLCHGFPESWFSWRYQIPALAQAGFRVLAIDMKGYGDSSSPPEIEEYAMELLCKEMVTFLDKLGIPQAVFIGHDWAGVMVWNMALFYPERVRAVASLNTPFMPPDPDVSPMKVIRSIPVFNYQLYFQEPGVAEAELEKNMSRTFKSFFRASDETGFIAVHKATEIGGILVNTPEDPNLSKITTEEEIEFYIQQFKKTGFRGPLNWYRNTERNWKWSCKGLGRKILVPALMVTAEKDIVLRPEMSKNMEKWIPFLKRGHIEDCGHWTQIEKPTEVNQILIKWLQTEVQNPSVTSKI
# Experimental: (§1) Detection principle: a specific substrate, (3-phenyl-oxy)-acetic acid cyano-(6-methoxy-naphthalen-2-yl) methyl ester, namely PHOME, is non-fluorescent but can be hydrolyzed under the action of sEH enzyme to generate a product 6-methoxy-2-naphthaldehyde. […] Based on the above principle, the inhibition rates of samples with different concentrations were calculated compared with the positive control group. The IC50 value of the compound was calculated based on the inhibition rate and concentration using SPSS 20 software.
# (§2) PHOME solution: 0.79 mg PHOME was dissolved in 106 µL DMSO to obtain a 20 mM PHOME solution, which was diluted to 1/3 mM with Tris-HCl buffer when used.
# (§3) sEH solution: sEH (5 mg/mL) stock solution was stored in a -80°C refrigerator and diluted to 4 µg/mL with 25 mM Tris-HCl buffer when used.
# (§4) A sample powder to be tested was dissolved in DMSO to a 20 mM solution, stored in a - 20°C refrigerator for later use, and diluted with Tris-HCl buffer to the corresponding concentration when used.
# (§5) Experimental design: solvent group, 100% activity group (A), inhibitor group (B), positive control group (C), as shown in Table 1.
# (§6) Three replicate wells were set for each sample, and the average of the three replicate wells was the fluorescence value (F) of the compound to be tested. […] The IC50 value of the compound was calculated based on the inhibition rate and concentration using SPSS 20 software.
# (§7) The activity of the compounds was evaluated using a biochemical method with [cyano-(6-methoxynaphthalen-2-yl)methyl] 2-(3-phenyloxiran-2-yl)acetate (PHOME) as a substrate using recombinant human sEH (HsEH) and murine sEH (MsEH).
# [2] = molecular target: T3, recombinant human sEH (HsEH) (Homo sapiens, UniProt P34913)
# T3 sequence (P34913 1-555): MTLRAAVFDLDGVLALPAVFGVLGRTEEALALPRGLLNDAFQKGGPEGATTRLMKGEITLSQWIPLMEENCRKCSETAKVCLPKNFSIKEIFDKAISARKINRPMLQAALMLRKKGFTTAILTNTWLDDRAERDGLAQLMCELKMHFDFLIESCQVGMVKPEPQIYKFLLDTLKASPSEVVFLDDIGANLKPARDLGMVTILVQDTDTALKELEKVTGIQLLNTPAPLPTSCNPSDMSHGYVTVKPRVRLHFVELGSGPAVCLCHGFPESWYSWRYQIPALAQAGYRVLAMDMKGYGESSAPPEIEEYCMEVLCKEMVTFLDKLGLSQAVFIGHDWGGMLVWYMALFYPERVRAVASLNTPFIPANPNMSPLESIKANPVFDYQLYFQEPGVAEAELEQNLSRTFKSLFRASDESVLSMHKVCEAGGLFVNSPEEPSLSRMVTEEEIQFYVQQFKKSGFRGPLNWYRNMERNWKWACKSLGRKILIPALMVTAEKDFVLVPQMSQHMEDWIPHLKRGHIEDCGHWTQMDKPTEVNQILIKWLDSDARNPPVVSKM
# Experimental: as §1, §2, §3, §4, §5, §6, §7
# murine sEH (MsEH) [3] = molecular target: T2, murine sEH (MsEH); settings: read-out: MsEH IC50, PHOME substrate
# Experimental: as §1, §2, §3, §4, §5, §6, §7
# [4] = Pharmacokinetics after intravenous and oral administration; settings: rats, i.v. 10 mg/kg
# Experimental: Blood levels were measured within 8 hours after oral administration. […] Table 7 PK of SP-B07 after intravenous and oral administration in rats (n=3)
# LPS-induced sepsis model = test: LPS-induced sepsis model; format: in vivo, Male C57BL/6 mice; settings: LPS 25 mg/kg i.p., administration 4 h after modeling, twice at 8 h interval, n=7
# Experimental: The drug was administered twice, with an interval of 8 h between administrations.
# [5] = read-out: HsEH IC50, recombinant human sEH, PHOME substrate
SMILES,"PPARγ (compared with Rosiglitazone, %) (PPARγ)",IC50 (murine sEH (MsEH) [1]),IC50 [2],IC50 (murine sEH (MsEH) [3]),"IC50 [2, 5]",other results
CC12CC3CC(C)(C1)CC(NC(=O)N[C@H]1CC[C@H](Oc4ccc(CC5SC(=O)NC5=O)cc4)CC1)(C3)C2 (stereo partly drawn) [SP-A01],34.5%,0.54 nM,0.55 nM,,,EC50 (PPARγ): 6770 nM
CC12CC3CC(C)(C1)CC(NC(=O)N1CCC(Oc4ccc(CC5SC(=O)NC5=O)cc4)CC1)(C3)C2 (stereo not drawn) [SP-A02],25.2%,8.3 nM,83.5 nM,,,
O=C1NC(=O)C(Cc2ccc(OC3CCN(C(=O)Nc4ccc(OC(F)(F)F)cc4)CC3)cc2)S1 (stereo not drawn) [SP-A05],14.3%,,,0.43 nM,0.53 nM,
O=C1NC(=O)C(Cc2ccc(OC3CCN(C(=O)Nc4ccc(OC(F)(F)F)c(F)c4)CC3)cc2)S1 (stereo not drawn) [SP-A06],28.4%,,,0.73 nM,1.3 nM,
O=C(Nc1ccc(OC(F)(F)F)c(F)c1)N[C@H]1CC[C@H](Oc2ccc(CC3SC(=O)NC3=O)cc2)CC1 (stereo partly drawn) [SP-A07],21.1%,0.67 nM,0.07 nM,,,EC50 (PPARγ): 7750 nM
CC12CC3CC(C)(C1)CC(NC(=O)N1CCC(Oc4ccc(/C=C5\SC(=O)NC5=O)cc4)CC1)(C3)C2 [SP-B02],14.6%,23.4 nM,19.9 nM,,,
"CC12CC3CC(C)(C1)CC(NC(=O)N1CCC(Oc4ccc(/C=C5\NC(=O)NC5=O)cc4)CC1)(C3)C2 [SP-B03, N-[(1r,3R,5S,7r)-3,5-dimethyladamantan-1-yl]-4-{4-[(Z)-(2,5-dioxyimidazolin-4-ylidene)methyl]phenoxy}piperidin-1-carboxamide]",10.2%,135 nM,121 nM,,,
O=C1NC(=O)/C(=C/c2ccc(OC3CCN(C(=O)Nc4ccc(OC(F)(F)F)cc4)CC3)cc2)N1 [SP-B04],9.6%,108 nM,156 nM,,,
"O=C1NC(=O)/C(=C/c2ccc(OC3CCN(C(=O)Nc4ccc(OC(F)(F)F)cc4)CC3)cc2)S1 [SP-B05, (Z)-4-{4-[(2,4-dioxothiazolidin-5-ylidene)methyl]phenoxy}-N-[4-(trifluoromethoxy)phenyl]piperidin-1-carboxamide]",17.3%,,,,,
O=C(Nc1ccc(OC(F)(F)F)c(F)c1)N[C@H]1CC[C@H](Oc2ccc(/C=C3\SC(=O)NC3=O)cc2)CC1 [SP-B06],19.3%,1.1 nM,0.69 nM,,,
"CC(=O)Oc1ccc(O[C@H]2CC[C@H](NC(=O)Nc3ccc(OC(F)(F)F)c(F)c3)CC2)cc1 [SP-C01, phenyl 4-(((1r,4r)-4-(3-(3-fluoro-4-(trifluoromethoxy)phenyl)ureido)cyclohexyl)oxy)acetate]",,,,,,time at which maximum concentration was reached after intravenous injection [4]: 2 min
NC(=O)c1ccc(O[C@H]2CC[C@H](NC(=O)Nc3ccc(OC(F)(F)F)cc3)CC2)cc1 [SP-C01i],12.97%,0.7 nM,0.3 nM,,,
"CC(=O)Nc1ccc(O[C@H]2CC[C@H](NC(=O)Nc3ccc(OC(F)(F)F)c(F)c3)CC2)cc1 [SP-C01k, N-(4-(((1r,4r)-4-(3-(3-fluoro-4-(trifluoromethoxy)phenyl)ureido)cyclohexyl)oxy)phenyl)acetamide]",0.3%,,,,,
CCC(=O)Nc1ccc(OC2CCCC(NC(=O)NC34CC5CC(C)(CC(C)(C5)C3)C4)C2)cc1 (stereo not drawn) [SP-C01m],0.9%,,,6.7 nM,0.9 nM,
CCC(C)C(=O)Nc1ccc(OC2CCCC(NC(=O)NC34CC5CC(C)(CC(C)(C5)C3)C4)C2)cc1 (stereo not drawn) [SP-C01n],0.7%,,,1.3 nM,0.7 nM,
CCOC(=O)CC(=O)Nc1ccc(O[C@H]2CC[C@H](NC(=O)Nc3ccc(OC(F)(F)F)c(F)c3)CC2)cc1 [SP-C01s],0.3%,0.6 nM,0.3 nM,,,
"COC(=O)CN1C(=O)S/C(=C\c2ccc(O[C@H]3CC[C@H](NC(=O)Nc4ccc(OC(F)(F)F)cc4)CC3)cc2)C1=O [SP-D01, methyl 2-(2,4-dioxo-5-((Z)-4-(((1r,4r)-4-(3-(4-(trifluoromethoxy)phenyl)ureido)cyclohexyl)oxy)benzylidene)thiazolidin-3-yl)acetate]",1.1%,,,2.4 nM,1.1 nM,
"COC(=O)CN1C(=O)S/C(=C\c2ccc(O[C@H]3CC[C@H](NC(=O)NC45CC6C[C@@](C)(C4)C[C@](C)(C6)C5)CC3)cc2)C1=O [SP-D04, methyl 2-(5-((Z)-4-(((1R,4r)-4-(3-((1R,3R,5S,7R)-3,5-dimethyladamantan-1-yl)ureido)cyclohexyl)oxy)benzylidene)-2,4-dioxythiazolin-3-yl)acetate]",1.2%,,,10.1 nM,1.2 nM,
"C[C@@H]1C[C@H]2[C@@H]3CCC4=CC(=O)C=C[C@]4(C)[C@@]3(F)[C@@H](O)C[C@]2(C)[C@@]1(O)C(=O)CO [dexamethasone, reference compound]",,,,,,increase of the survival rate (LPS-induced sepsis model): 57.1%
